Assay results from US20260102507A1, “CAMPTOTHECIN DERIVATIVE FOR TREATING OR PREVENTING CANCER AND ANTIBODY-DRUG CONJUGATE THEREOF” (CHENGDU BRILLIANT PHARMACEUTICAL CO., LTD., priority 2023, published 2026).

Key:
Assay type in all cases: cell-based
[1] = test system: human colon cancer cell line HCT116; assay: Cytotoxicity assay of camptothecin derivative toxins (Example A); details: 3 days incubation, Cell Titer Turbo 2.0 luminescent cell viability
Method: (§1) Tumor cells (human ovarian cancer cell line SK-OV-3; human colon cancer cell line HCT116; human lung adenocarcinoma cell line A549) in logarithmic growth phase were digested and adjusted to a density of approximately 3×10^4 cells/mL. The cells were plated on a white-walled 96-well plate at approximately 100 μL/well. The camptothecin derivative toxins of the Examples of the present application were serially diluted with the corresponding cell culture medium, and then mixed with the cells for incubation at 37° C. in a 5% CO2 incubator for 3 days. The growth inhibitory effect of the camptothecin derivative toxins on tumor cells was assessed by the Cell Titer Turbo 2.0 Luminescent Cell Viability Assay (Damas life, RA-GL11). Relative light unit (RLU) values were read from the cell culture plate using a microplate reader. Experimental data were analyzed using GraphPad Prism 8.0 software to calculate IC50 values. The above experiment was repeated using the following compounds as positive controls: […]

[2] = test system: human lung adenocarcinoma cell line A549; assay: as above; details: 3 days incubation, Cell Titer Turbo 2.0 luminescent cell viability
Method: as §1

[3] = test system: human ovarian cancer cell line SK-OV-3; assay: as above; details: for IC50: 3 days incubation, Cell Titer Turbo 2.0 luminescent cell viability; for tumor cell killing activity: in words, overall statement on Table 2 tumor cells, compared with SN-38 and Dxd
Method: as §1

[4] = test system: human lung adenocarcinoma cell line NCI-H441; assay: Cytotoxicity assay of camptothecin derivative toxins (Example A'); details: Homo sapiens, NCI-H441, 72 h; Example A'; 3 days incubation; read-out: IC50 (nM) NCI-H441
Method: (§2) The camptothecin derivatives of the Examples of the present application were serially diluted with DMSO and the corresponding cell culture medium, and were added into a white-walled 96-well plate. Tumor cells (human ovarian cancer cell line SK-OV-3; human colon cancer cell line HCT116; human lung adenocarcinoma cell line A549; human lung adenocarcinoma cell line NCI-H441; human oral epidermoid carcinoma cell line KB) in logarithmic growth phase were digested and adjusted to a density of approximately 3.33×10^4 cells/mL. The cells were plated at 90 µL/well on the white-walled 96-well plate that was pre-loaded with the samples, followed by incubation at 37° C. in a 5% CO2 incubator for 3 days. The growth inhibitory effect of the small molecule compounds on tumor cells was evaluated by the Cell Titer Turbo 2.0 Luminescent Cell Viability Assay (Damas life, RA-GL11). Relative light unit (RLU) values were read from the cell culture plates using a microplate reader. Experimental data were analyzed with GraphPad Prism 8.0 software to calculate IC50 values.

[5] = test system: human ovarian cancer cell line SK-OV-3; assay: as above; details: Homo sapiens, SK-OV-3, 72 h; Example A'; 3 days incubation; read-out: IC50 (nM) SK-OV-3
Method: as §2

| SMILES | IC50 ([1]; Homo sapiens, HCT-116, 72 h) [nM] | IC50 ([2]; Homo sapiens, A549, 72 h) [nM] | IC50 ([3]; Homo sapiens, SK-OV-3, 72 h) [nM] | tumor cell killing activity [3] | further results |
| --- | --- | --- | --- | --- | --- |
| CC[C@@]1(O)C(=O)OCc2c1cc1n(c2=O)Cc2c-1nc1cc3c(cc1c2CCCCO)OCO3 [STI-E, (S)-7-ethyl-7-hydroxy-14-(4-hydroxybutyl)-10,13-dihydro-11H-[1,3]dioxolo[4,5-g]pyrano[3′,4′:6,7]indolizino[1,2-b]quinoline-8,11(7H)-dione] | 1740 | 1060 | 403 |  |  |
| CC[C@@]1(O)C(=O)OCc2c1cc1n(c2=O)Cc2c-1nc1cc(F)c(C)c3c1c2[C@@H](NC(=O)CO)CC3 [DXD, Dxd, reference compound] |  |  |  |  | IC50 [1]: 49.3 nM; IC50 [2]: 413 nM; IC50 [3]: 41.4 nM |
| CCCCCNc1c2c(nc3cc(F)c(C)cc13)-c1cc3c(c(=O)n1C2)COC(=O)[C@]3(O)CC [STI-F13, (S)-4-ethyl-8-fluoro-4-hydroxy-9-methyl-11-(pentylamino)-1,12-dihydro-14H-pyrano[3′,4′:6,7]indolizino[1,2-b]quinoline-3,14(4H)-dione] |  |  | 2.37 |  |  |
| CCc1c2c(nc3ccc(O)cc13)-c1cc3c(c(=O)n1C2)COC(=O)[C@]3(O)CC [SN-38, reference compound] | 60.5 | 523 | 30.9 |  |  |
| CC[C@@]1(O)C(=O)OCc2c1cc1n(c2=O)Cc2c-1nc1cc(F)c(C)cc1c2N [STI-F-03C-1, (S)-4-ethyl-4-hydroxy-8-fluoro-9-methyl-11-amino-1,12-dihydro-14H-pyrano[3′,4′:6,7]indolizino[1,2-b]quinoline-3,14(4H)-dione] | 38.2 | 1080 | 19.9 | comparable to that of SN-38 and Dxd |  |
| CC[C@@]1(O)C(=O)OCc2c1cc1n(c2=O)Cc2c-1nc1cc(F)c(C)cc1c2NC(=O)C(O)C1CC1 (stereo partly drawn) [STI-F, 2-cyclopropyl-N—((S)-4-ethyl-8-fluoro-4-hydroxy-9-methyl-3,14-dioxo-3,4,12,14-tetrahydro-1H-pyrano[3′,4′:6,7]indolizino[1,2-b]quinolin-11-yl)-2-hydroxyacetamide] |  |  | 45.5 | comparable to that of SN-38 and Dxd |  |
| CCCSCc1c2c(nc3cc(F)c(N)cc13)-c1cc3c(c(=O)n1C2)COC(=O)[C@]3(O)CC [STI-G2, (S)-9-amino-4-ethyl-8-fluoro-4-hydroxy-11-((propylthio)methyl)-1,12-dihydro-14H-pyrano[3′,4′:6,7]indolizino[1,2-b]quinoline-3,14(4H)-dione] | 11 | 14.9 | 2.19 | significantly superior to that of SN-38 and Dxd |  |
| CC[C@@]1(O)C(=O)OCc2c1cc1n(c2=O)Cc2c-1nc1cc(F)c(C)cc1c2NCCCCN [STI-F7, (S)-11-((4-aminobutyl)amino)-4-ethyl-8-fluoro-4-hydroxy-9-methyl-1,12-dihydro-14H-pyrano[3′,4′:6,7]indolizino[1,2-b]quinoline-3,14(4H)-dione] |  |  | 285 |  |  |
| CCCCCc1c2c(nc3cc(F)c([N+](=O)[O-])cc13)-c1cc3c(c(=O)n1C2)COC(=O)[C@]3(O)CC [STI-G03, (S)-4-ethyl-4-hydroxy-8-fluoro-9-nitro-11-pentyl-1,12-dihydro-14H-pyrano[3′,4′:6,7]indolizino[1,2-b]quinoline-3,14(4H)-dione] | 268 | 322 | 137 |  |  |
| CCCCCc1c2c(nc3cc(F)c(NC(=O)CO)cc13)-c1cc3c(c(=O)n1C2)COC(=O)[C@]3(O)CC [STI-G5, (S)—N-(4-ethyl-8-fluoro-4-hydroxy-3,14-dioxo-11-pentyl-3,4,12,14-tetrahydro-1H-pyrano[3′,4′:6,7]indolizino[1,2-b]quinolin-9-yl)-2-hydroxyacetamide] |  |  |  |  | IC50 [4]: 2.22 nM; IC50 [5]: 10.3 nM |
| CC[C@@]1(O)C(=O)OCc2c1cc1n(c2=O)Cc2c-1nc1cc(F)c(C)cc1c2NCCCCO [STI-F6, (S)-4-ethyl-8-fluoro-4-hydroxy-9-methyl-11-((4-hydroxybutyl)amino)-1,12-dihydro-14H-pyrano[3′,4′:6,7]indolizino[1,2-b]quinoline-3,14(4H)-dione] |  |  | 2.65 | significantly superior to that of SN-38 and Dxd |  |
| CCCCCc1c2c(nc3cc(F)c(N)cc13)-c1cc3c(c(=O)n1C2)COC(=O)[C@]3(O)CC [STI-G1, (S)-4-ethyl-4-hydroxy-8-fluoro-9-amino-11-pentyl-1,12-dihydro-14H-pyrano[3′,4′:6,7]indolizino[1,2-b]quinoline-3,14(4H)-dione] | 11 | 9.52 | 3.7 | significantly superior to that of SN-38 and Dxd |  |
| CCCCCNc1c2c(nc3cc(F)c(C)cc13)-c1cc3c(c(=O)n1C2)COC(=O)[C@]3(O)CC [STI-F-13] |  |  |  | significantly superior to that of SN-38 and Dxd |  |
| CC[C@@]1(O)C(=O)OCc2c1cc1n(c2=O)Cc2c-1nc1cc(F)c(C)cc1c2CCl [STI-A-4, (S)-4-ethyl-4-hydroxy-8-fluoro-9-methyl-11-(chloromethyl)-1,12-dihydro-14H-pyrano[3′,4′:6,7]indolizino[1,2-b]quinoline-3,14(4H)-dione] | 222 | 757 | 71.8 |  |  |
| CC[C@@]1(O)C(=O)OCc2c1cc1n(c2=O)Cc2c-1nc1cc(F)c(C)cc1c2NC(=O)CO [STI-F2, (S)—N-(4-ethyl-4-hydroxy-8-fluoro-9-methyl-3,14-dioxo-3,4,12,14-tetrahydro-1H-pyrano[3′,4′:6,7]indolizino[1,2-b]quinolin-11-yl)-2-hydroxyacetamide] | 945 | 2370 | 317 |  |  |
| CC[C@@]1(O)C(=O)OCc2c1cc1n(c2=O)Cc2cc3cc4c(cc3nc2-1)OCO4 [STI-E-05, (S)-7-ethyl-7-hydroxy-10,13-dihydro-11H-[1,3]dioxolo[4,5-g]pyrano[3′,4′:6,7]indolizino[1,2-b]quinoline-8,11(7H)-dione] | 32.9 | 70.3 | 12.7 | comparable to that of SN-38 and Dxd |  |
| CCCSCc1c2c(nc3cc(F)c(Br)cc13)-c1cc3c(c(=O)n1C2)COC(=O)[C@]3(O)CC [STI-G2-06C, (S)-9-bromo-4-ethyl-8-fluoro-4-hydroxy-11-((propylthio)methyl)-1,12-dihydro-14H-pyrano[3′,4′:6,7]indolizino[1,2-b]quinoline-3,14(4H)-dione] | 81.3 | 216 | 57.8 | comparable to that of SN-38 and Dxd |  |
| CC[C@@]1(O)C(=O)OCc2c1cc1n(c2=O)Cc2c-1nc1cc(F)c(C)cc1c2CNCC1CCCC1 [STI-A2, (S)-4-ethyl-4-hydroxy-8-fluoro-9-methyl-11-(((cyclopentylmethyl)amino)methyl)-1,12-dihydro-14H-pyrano[3′,4′:6,7]indolizino[1,2-b]quinoline-3,14(4H)-dione] | 52.5 | 107 | 30.8 | comparable to that of SN-38 and Dxd |  |
| CC[C@@]1(O)C(=O)OCc2c1cc1n(c2=O)Cc2cc3cc(C)c(F)cc3nc2-1 [STI-F-8, (S)-4-ethyl-4-hydroxy-8-fluoro-9-methyl-1,12-dihydro-14H-pyrano[3′,4′:6,7]indolizino[1,2-b]quinoline-3,14(4H)-dione] | 26.6 | 52.8 | 12.4 | comparable to that of SN-38 and Dxd |  |
| CC[C@@]1(O)C(=O)OCc2c1cc1n(c2=O)Cc2c-1nc1cc(F)c(C)cc1c2C(=O)O [STI-F-01, (S)-4-ethyl-8-fluoro-4-hydroxy-9-methyl-3,14-dioxo-3,4,12,14-tetrahydro-1H-pyrano[3′,4′:6,7]indolizino[1,2-b]quinoline-11-carboxylic acid] | 322 | 1050 | 131 |  |  |
| CC[C@@]1(O)C(=O)OCc2c1cc1n(c2=O)Cc2c-1nc1cc(F)c(C)cc1c2CNCC(C)(C)C [STI-A, (S)-4-ethyl-4-hydroxy-8-fluoro-9-methyl-11-((neopentylamino)methyl)-1,12-dihydro-14H-pyrano[3′,4′:6,7]indolizino[1,2-b]quinoline-3,14(4H)-dione] | 39.9 | 115 | 29.3 | comparable to that of SN-38 and Dxd |  |
